Read-outs that look alike come from different tables or passages of the source.

The conditions of this data set: amide bond, HATU/DIEA, NMP, 2 steps.

Turning to “8-Ethyl-10,18-dimethyl-7,20-dioxo-6,7,8,11,14,15,20,21,28,29,30,31-dodecahydrobenzo[4,5]imidazo[1,2-a]benzo[4,5]imidazo[2,1-p]dipyrazolo[5,1-e:4′,3′-l][1,3,6,15,17]pentaazacyclohenicosine-3,24-dicarboxamide”, for the setting “21-membered ring, 92.4 mM, 80.0 °C”, the ring closure, yield after HPLC worked out at 1.7%.

“8-ethyl-10,18,30-trimethyl-7,20-dioxo-7,8,11,12,13,14,15,20,21,28,29,30,31,32-tetradecahydro-benzo[4,5]imidazo[2,1-b]benzo[4,5]imidazo[1,2-i]dipyrazolo[5,1-m:4′,3′-t][1,3,6,9,11,14]hexaazacyclodocosine-3,24-dicarboxamide”: the ring closure, yield after HPLC (22-membered ring, 68.9 mM, 140.0 °C) is 4.56%.

The record behind these values is patent US20210238172.
